Experimental data from patent publication US20260193268A1, “TRICYCLIC PI3Ka INHIBITOR, PREPARATION METHOD THEREFOR, AND PHARMACEUTICAL USE THEREOF” (WIGEN BIOMEDICINE TECHNOLOGY (SHANGHAI) CO., LTD., priority 2022, published 2026).
pIC50: −log10 of the molar value. Where two headings read alike, the source gives them in different places.

Experiments:
PI3Kα = PI3Kα (Homo sapiens, UniProt P42336); assay: ADP-Glo kinase assay, in vitro inhibition of PI3Kα kinase activity; assay type: biochemical; conditions: 25 μM ATP, PIP2 50 μg/mL, room temperature 1 h, read-out: Inhibitory activity against PI3K kinases, PI3Kα (IC50)
Procedure: (§1) Biological Example 1. Assay for In Vitro Inhibition of PI3Kα, PI3Kβ, PI3Kγ, and PI3Kδ Kinase Activity by Compounds of the Present Disclosure
(§2) The experiment was performed using the ADP-Glo Kinase Assay kit according to the instructions. The following buffer solution was prepared: 50 mM HEPES, pH 7.5, 3 mM MgCl2, 1 mM EGTA, 100 mM NaCl, 0.03% CHAPS, 2 mM DTT. Test compound samples were dissolved in DMSO, diluted 3-fold at a starting concentration, e.g., 10 μM, and added to the screening system. A DMSO control and a kinase-free control were set simultaneously. The optimal concentrations of PI3Kα, PI3Kδ, PI3Kβ, and PI3Kγ enzymes, substrate (PIP2), and ATP were prepared with buffer. The enzyme reaction system contained: buffer, 25 μM ATP, kinase substrate (PIP2, 50 μg/mL), and kinases PI3Kα (0.15 μg/mL), PI3Kδ (1.2 μg/mL), PI3Kβ (0.3 μg/mL), PI3Kγ (2.5 μg/mL), and the like. The reaction system was reacted at room temperature for 1 h. The reaction was terminated by adding a termination reagent (ADP-Glo reagent, 5 μL), and the ADP content in the system was detected using a detection reagent (Kinase Detection Reagent, 10 μL). Signal data were collected using an Envision instrument. The inhibition rate was calculated according to the following equation: % inhibition=(DMSO control signal value−sample signal value)/(DMSO control signal value−kinase-free control signal value). The IC50 values were obtained by fitting a curve using the equation: Y=Bottom+(Top−Bottom)/(1+(IC50/X)^HillSlope).

PI3Kβ = PI3Kβ (Homo sapiens, UniProt P42338); assay: ADP-Glo kinase assay, in vitro inhibition of PI3Kβ kinase activity; assay type: biochemical; conditions: 25 μM ATP, PIP2 50 μg/mL, room temperature 1 h, read-out: Inhibitory activity against PI3K kinases, PI3Kβ (IC50)
Procedure: as §1, §2

PI3Kγ = PI3Kγ (Homo sapiens, UniProt P48736); assay: ADP-Glo kinase assay, in vitro inhibition of PI3Kγ kinase activity; assay type: biochemical; conditions: 25 μM ATP, PIP2 50 μg/mL, room temperature 1 h, read-out: Inhibitory activity against PI3K kinases, PI3Kγ (IC50)
Procedure: as §1, §2

PI3Kδ = PI3Kδ (Homo sapiens, UniProt O00329); assay: ADP-Glo kinase assay, in vitro inhibition of PI3Kδ kinase activity; assay type: biochemical; conditions: 25 μM ATP, PIP2 50 μg/mL, room temperature 1 h, read-out: Inhibitory activity against PI3K kinases, PI3Kδ (IC50)
Procedure: as §1, §2

[1] = tested on: HCC1954 cells (with PI3Kα H1047R mutation); assay: In vitro inhibition of HCC1954 cell proliferation (CellTiter-Lumi); assay type: cell-based; conditions: HCC1954 cells, 144 h, CellTiter-Lumi
Procedure: Assay for In Vitro Inhibition of HCC1954 Cell Proliferation by Compounds of the Present Disclosure
The growth of the cells was evaluated, and the IC50 for the inhibition of cell growth by the compounds was calculated.

[2] = tested on: MCF-7 cells (with PI3Kα E545K mutation); assay: In vitro inhibition of MCF-7 cell proliferation (CellTiter-Lumi); assay type: cell-based; conditions: Homo sapiens, MCF7, 144 h
Procedure, shortened: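 MCF-7 (PI3Kα E545K) seeded at 2000 cells/well; serially diluted compounds added next day and exposed for 144 h. Cellular ATP read by CellTiter-Lumi luminescence; IC50 for growth inhibition calculated.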

[3] = Homo sapiens, HCC1954, 144 h, numeric values, read-out: Inhibitory activity against HCC1954 cells (IC50)
[4] = numeric values, read-out: Inhibitory activity against MCF-7 cells (IC50)
[5] = Homo sapiens, HCC1954, 144 h, class symbols, read-out: Inhibitory activity against HCC1954 cells (IC50), class symbols
[6] = class symbols, read-out: Inhibitory activity against MCF-7 cells (IC50), class symbols

Sequence of PI3Kβ (P42338 whole entry, species assumed): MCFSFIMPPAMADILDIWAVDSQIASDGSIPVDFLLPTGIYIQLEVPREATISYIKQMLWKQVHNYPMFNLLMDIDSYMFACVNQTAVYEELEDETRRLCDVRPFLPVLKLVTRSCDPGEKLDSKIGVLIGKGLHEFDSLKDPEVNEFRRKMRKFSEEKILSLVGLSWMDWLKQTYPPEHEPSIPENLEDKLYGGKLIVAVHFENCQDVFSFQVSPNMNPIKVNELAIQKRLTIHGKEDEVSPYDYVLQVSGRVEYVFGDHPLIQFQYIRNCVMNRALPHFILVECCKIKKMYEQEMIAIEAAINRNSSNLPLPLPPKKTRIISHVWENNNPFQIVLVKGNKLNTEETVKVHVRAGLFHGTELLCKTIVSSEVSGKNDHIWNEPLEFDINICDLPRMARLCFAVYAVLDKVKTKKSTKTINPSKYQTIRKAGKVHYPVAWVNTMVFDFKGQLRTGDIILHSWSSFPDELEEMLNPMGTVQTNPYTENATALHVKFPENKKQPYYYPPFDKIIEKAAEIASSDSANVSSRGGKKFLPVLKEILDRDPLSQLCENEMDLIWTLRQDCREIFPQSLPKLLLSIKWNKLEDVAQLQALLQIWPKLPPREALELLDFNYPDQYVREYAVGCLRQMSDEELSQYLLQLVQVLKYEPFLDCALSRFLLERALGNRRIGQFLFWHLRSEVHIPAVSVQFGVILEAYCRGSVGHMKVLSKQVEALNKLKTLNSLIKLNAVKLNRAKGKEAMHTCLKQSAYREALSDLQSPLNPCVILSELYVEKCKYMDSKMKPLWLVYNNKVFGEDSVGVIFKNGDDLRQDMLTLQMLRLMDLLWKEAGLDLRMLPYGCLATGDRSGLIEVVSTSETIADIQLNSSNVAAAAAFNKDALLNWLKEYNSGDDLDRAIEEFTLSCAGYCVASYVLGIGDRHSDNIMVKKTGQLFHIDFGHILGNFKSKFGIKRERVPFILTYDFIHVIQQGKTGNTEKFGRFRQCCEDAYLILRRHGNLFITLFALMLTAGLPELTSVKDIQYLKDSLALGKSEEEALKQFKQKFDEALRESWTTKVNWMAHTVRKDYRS
Sequence of PI3Kβ (P27986 whole entry partner, species assumed): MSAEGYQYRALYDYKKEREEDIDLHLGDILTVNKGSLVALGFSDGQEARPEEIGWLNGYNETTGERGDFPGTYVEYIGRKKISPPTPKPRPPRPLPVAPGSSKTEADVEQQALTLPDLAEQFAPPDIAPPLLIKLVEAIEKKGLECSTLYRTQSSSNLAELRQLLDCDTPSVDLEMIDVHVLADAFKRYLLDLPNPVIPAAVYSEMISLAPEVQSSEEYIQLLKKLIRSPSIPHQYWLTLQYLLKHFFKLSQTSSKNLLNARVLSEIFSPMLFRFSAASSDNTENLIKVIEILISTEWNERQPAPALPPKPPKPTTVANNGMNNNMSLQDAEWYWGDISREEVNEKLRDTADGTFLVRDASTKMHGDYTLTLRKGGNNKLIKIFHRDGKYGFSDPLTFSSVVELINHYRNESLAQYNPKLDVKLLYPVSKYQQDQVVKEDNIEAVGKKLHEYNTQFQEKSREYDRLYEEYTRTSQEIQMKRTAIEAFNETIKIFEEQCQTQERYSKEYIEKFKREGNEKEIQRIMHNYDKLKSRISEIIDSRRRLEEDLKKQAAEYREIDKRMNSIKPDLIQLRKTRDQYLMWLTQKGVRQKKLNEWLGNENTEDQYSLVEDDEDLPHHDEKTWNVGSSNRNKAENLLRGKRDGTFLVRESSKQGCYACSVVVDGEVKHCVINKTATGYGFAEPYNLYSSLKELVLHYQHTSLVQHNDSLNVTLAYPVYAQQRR
Sequence of PI3Kα (P42336 whole entry): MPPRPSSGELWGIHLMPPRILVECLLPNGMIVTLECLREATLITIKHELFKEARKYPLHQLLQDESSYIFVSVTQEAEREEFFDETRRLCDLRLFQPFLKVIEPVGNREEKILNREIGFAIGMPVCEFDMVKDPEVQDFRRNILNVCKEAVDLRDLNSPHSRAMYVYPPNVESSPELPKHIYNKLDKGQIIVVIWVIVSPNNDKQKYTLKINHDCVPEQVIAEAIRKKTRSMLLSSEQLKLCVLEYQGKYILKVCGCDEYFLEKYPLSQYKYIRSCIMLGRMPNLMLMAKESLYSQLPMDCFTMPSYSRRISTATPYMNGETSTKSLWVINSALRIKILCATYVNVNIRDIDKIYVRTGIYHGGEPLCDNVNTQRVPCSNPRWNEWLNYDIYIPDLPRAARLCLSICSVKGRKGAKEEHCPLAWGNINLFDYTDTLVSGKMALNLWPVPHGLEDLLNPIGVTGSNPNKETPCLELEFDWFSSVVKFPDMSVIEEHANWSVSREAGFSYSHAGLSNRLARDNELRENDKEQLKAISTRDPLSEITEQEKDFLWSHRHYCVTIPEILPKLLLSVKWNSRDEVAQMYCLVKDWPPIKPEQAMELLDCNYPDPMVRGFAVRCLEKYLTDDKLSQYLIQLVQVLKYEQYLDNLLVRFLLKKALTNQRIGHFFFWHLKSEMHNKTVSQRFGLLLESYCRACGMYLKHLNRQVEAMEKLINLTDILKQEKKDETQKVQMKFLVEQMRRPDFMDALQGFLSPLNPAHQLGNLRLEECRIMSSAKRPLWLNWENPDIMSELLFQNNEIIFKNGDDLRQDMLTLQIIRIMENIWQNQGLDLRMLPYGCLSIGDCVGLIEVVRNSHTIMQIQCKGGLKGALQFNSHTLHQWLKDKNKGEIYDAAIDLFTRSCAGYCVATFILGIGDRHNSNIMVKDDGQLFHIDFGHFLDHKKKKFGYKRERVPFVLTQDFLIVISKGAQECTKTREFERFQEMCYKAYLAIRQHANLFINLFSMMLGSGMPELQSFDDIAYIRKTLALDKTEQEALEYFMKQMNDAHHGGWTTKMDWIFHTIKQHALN
Sequence of PI3Kα (P27986 whole entry partner): as the sequence (P27986 whole entry partner, species assumed) above
Sequence of PI3Kγ (P48736 whole entry, species assumed): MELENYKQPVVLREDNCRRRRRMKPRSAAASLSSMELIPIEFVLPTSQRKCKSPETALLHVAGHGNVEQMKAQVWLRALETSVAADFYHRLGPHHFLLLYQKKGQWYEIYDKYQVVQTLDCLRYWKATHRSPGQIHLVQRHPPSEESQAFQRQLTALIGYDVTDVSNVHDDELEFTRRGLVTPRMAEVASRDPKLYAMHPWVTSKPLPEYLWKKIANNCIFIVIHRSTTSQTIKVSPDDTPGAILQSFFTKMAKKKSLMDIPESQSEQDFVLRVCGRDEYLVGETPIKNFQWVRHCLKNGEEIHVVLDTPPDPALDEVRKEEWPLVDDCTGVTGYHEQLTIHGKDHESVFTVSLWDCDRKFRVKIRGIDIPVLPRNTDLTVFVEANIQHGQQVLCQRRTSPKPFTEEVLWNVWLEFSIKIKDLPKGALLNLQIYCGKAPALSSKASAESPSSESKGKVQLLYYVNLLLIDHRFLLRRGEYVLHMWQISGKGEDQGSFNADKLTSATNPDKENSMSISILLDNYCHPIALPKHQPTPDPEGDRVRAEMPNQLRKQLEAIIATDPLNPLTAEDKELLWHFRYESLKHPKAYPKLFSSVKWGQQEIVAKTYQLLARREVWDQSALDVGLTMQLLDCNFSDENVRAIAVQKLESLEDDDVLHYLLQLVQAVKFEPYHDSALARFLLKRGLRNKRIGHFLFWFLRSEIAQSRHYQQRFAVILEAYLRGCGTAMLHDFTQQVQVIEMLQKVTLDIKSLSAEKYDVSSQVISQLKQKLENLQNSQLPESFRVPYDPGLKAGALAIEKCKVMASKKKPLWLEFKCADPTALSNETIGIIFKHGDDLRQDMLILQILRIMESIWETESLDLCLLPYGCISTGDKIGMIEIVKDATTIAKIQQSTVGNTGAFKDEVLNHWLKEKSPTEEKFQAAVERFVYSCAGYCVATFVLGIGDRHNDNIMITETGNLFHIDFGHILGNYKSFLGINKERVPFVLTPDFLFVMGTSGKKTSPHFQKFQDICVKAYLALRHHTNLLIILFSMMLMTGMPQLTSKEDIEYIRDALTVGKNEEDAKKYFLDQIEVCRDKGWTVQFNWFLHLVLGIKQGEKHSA
Sequence of PI3Kδ (O00329 whole entry, species assumed): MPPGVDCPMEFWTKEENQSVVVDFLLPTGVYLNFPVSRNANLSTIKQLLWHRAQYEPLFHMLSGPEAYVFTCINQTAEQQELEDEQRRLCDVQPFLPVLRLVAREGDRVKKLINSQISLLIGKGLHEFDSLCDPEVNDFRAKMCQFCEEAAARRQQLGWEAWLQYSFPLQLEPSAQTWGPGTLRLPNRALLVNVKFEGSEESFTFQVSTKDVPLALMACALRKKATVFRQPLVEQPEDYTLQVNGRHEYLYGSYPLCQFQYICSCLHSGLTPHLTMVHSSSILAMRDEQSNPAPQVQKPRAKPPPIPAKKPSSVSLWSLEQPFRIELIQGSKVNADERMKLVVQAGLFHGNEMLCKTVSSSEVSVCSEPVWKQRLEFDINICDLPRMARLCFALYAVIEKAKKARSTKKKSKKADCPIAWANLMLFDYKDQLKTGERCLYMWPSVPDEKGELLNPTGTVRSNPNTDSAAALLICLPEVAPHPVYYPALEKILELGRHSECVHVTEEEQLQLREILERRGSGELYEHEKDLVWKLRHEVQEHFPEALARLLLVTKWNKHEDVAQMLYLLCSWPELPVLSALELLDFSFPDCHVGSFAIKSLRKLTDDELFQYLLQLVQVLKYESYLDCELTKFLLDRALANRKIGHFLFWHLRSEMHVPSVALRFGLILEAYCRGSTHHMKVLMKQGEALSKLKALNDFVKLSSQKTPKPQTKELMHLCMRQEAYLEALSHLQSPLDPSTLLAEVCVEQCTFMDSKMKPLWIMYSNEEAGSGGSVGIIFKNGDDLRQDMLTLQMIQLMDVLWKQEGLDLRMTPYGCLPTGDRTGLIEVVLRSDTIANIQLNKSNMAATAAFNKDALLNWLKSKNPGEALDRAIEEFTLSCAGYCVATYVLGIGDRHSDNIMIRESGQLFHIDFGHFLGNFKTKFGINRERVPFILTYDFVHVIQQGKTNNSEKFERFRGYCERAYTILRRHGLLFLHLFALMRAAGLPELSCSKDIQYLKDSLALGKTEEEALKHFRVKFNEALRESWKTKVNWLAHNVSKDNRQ
Sequence of PI3Kδ (P27986 whole entry partner, species assumed): as the sequence (P27986 whole entry partner, species assumed) above

| pIC50 (PI3Kα) | pIC50 (PI3Kβ) | pIC50 (PI3Kγ) | pIC50 (PI3Kδ) | pIC50 [1, 3] | pIC50 [2, 4] | pIC50 [1, 5] | pIC50 [2, 6] | pIC50 ([1]; numeric values, read-out: Inhibitory activity against HCC1954 cells (IC50)) | Compound |
| --- | --- | --- | --- | --- | --- | --- | --- | --- | --- |
| 8.93 | 5.90 | 7.42 | 7.31 |  |  |  |  |  | C=CC(=O)Nc1ccc(N2CC[C@H](N3CCN(c4ccc5c(c4)-c4nc(N6C(=O)OC[C@H]6C(F)F)cn4CCO5)CC3)C2)cc1 (single isomer, unassigned) [Compound 29] |
| 8.27 | 6.50 | 7.68 | > 8.10 | 6.99 | 7.74 |  |  |  | C=CC(=O)Nc1ccc(CC(=O)N2CCN(c3ccc4c(c3)-c3nc(N5C(=O)OC[C@H]5C(F)F)cn3CCO4)CC2)cc1 [Compound 1] |
| 8.14 | 6.29 | 7.36 | 7.70 | 7.01 | 7.55 |  |  |  | C=CC(=O)N1CC[C@@H](C(=O)NCC(=O)N2CCN(c3ccc4c(c3)-c3nc(N5C(=O)OC[C@H]5C(F)F)cn3CCO4)CC2)C1 [Compound 2] |
| 8.13 | 6.50 | 7.01 | 7.37 | 7.19 | 7.59 |  |  |  | C=CC(=O)Nc1ccc(N2CC(CN3CCN(c4ccc5c(c4)-c4nc(N6C(=O)OC[C@H]6C(F)F)cn4CCO5)CC3)C2)cc1 [Compound 4] |
| 7.30 | 6.50 | 5.92 | 6.93 | 6.17 | 7.46 |  |  |  | C=CC(=O)N1CCC(N2CC(CN3CCN(c4ccc5c(c4)-c4nc(N6C(=O)OC[C@H]6C(F)F)cn4CCO5)CC3)C2)CC1 [Compound 5] |
| 8.88 | 5.50 | 6.65 | 6.32 | 7.59 | 8.60 |  |  |  | CN(C)C/C=C/C(=O)Nc1ccc(N2CC(N3CCN(c4ccc5c(c4)-c4nc(N6C(=O)OC[C@H]6C(F)F)cn4CCO5)CC3)C2)cc1 [Compound 96] |
|  |  |  |  |  |  | > 7.30 | > 7.30 |  | CC(C)(C=C(C#N)C(=O)Nc1ccc(N2CC(N3CCN(c4ccc5c(c4)-c4nc(N6C(=O)OC[C@H]6C(F)F)cn4CCO5)CC3)C2)c(F)c1)NC1(C)COC1 [Compound 384] |
|  |  |  |  |  |  | > 7.30 | > 7.30 |  | CCC(C=C(C#N)C(=O)Nc1ccc(N2CC(N3CCN(c4ccc5c(c4)-c4nc(N6C(=O)OC[C@H]6C(F)F)cn4CCO5)CC3)C2)cc1)(CC)NC1COC1 [Compound 387] |
|  |  |  |  |  |  | > 7.30 | > 7.30 |  | N#CC(=CC1(NC2COC2)CCC1)C(=O)Nc1ccc(N2CC(N3CCN(c4ccc5c(c4)-c4nc(N6C(=O)OC[C@H]6C(F)F)cn4CCO5)CC3)C2)cc1 [Compound 388] |
|  |  |  |  |  |  | > 7.30 | > 7.30 |  | CC1(C=C(C#N)C(=O)Nc2ccc(N3CC(N4CCN(c5ccc6c(c5)-c5nc(N7C(=O)OC[C@H]7C(F)F)cn5CCO6)CC4)C3)cc2)CCC1 [Compound 390] |
|  |  |  |  |  |  | > 7.30 | > 7.30 |  | CCC(N)(C=C(C#N)C(=O)Nc1ccc(N2CC(N3CCN(c4ccc5c(c4)-c4nc(N6C(=O)OC[C@H]6C(F)F)cn4CCO5)CC3)C2)cc1)CC [Compound 395] |
|  |  |  |  |  | 7.26 |  |  | 7.09 | C[C@H](Nc1ccc2c(c1)OCCn1cc(N3C(=O)OC[C@H]3C(F)F)nc1-2)C(N)=O [GDC0077, GDC-0077, reference compound] |

The next lines start with the compound.

| Compound | pIC50 (PI3Kα) | pIC50 (PI3Kβ) | pIC50 (PI3Kγ) | pIC50 (PI3Kδ) | pIC50 [1, 3] | pIC50 [2, 4] | pIC50 [1, 5] | pIC50 [2, 6] | pIC50 ([1]; numeric values, read-out: Inhibitory activity against HCC1954 cells (IC50)) |
| --- | --- | --- | --- | --- | --- | --- | --- | --- | --- |
| C=CC(=O)N1CC(N2CCC(CN3CCN(c4ccc5c(c4)-c4nc(N6C(=O)OC[C@H]6C(F)F)cn4CCO5)CC3)CC2)C1 [Compound 17] | 7.96 | 6.50 | 6.50 | 7.04 | 7.09 | 7.80 |  |  |  |
| C=CC(=O)Nc1ccc(N2CC(N3CCN(c4ccc5c(c4)-c4nc(N6C(=O)OC[C@H]6C(F)F)cn4CCO5)CC3)C2)cc1 [Compound 27] | 9.68 | 5.53 | 7.59 | 7.12 | 8.05 | 9.44 |  |  |  |
| CN(C1COC1)C(C)(C)/C=C(\C#N)C(=O)Nc1ccc(N2CC(N3CCN(c4ccc5c(c4)-c4nc(N6C(=O)OC[C@H]6C(F)F)cn4CCO5)CC3)C2)cc1 [Compound 95] | 9.80 | 5.96 | 7.38 | 6.99 | 7.17 | 7.42 |  |  |  |
| CC(C)(C=C(C#N)C(=O)Nc1ccc(N2CC(N3CCN(c4ccc5c(c4)-c4nc(N6C(=O)OC[C@H]6C(F)F)cn4CCO5)CC3)C2)cc1)NCC1CCO1 (stereo partly shown) [Compound 382] |  |  |  |  |  |  | > 7.30 | > 7.30 |  |
| CC(C)(C=C(C#N)C(=O)Nc1ccc(N2CC(N3CCN(c4ccc5c(c4)-c4nc(N6C(=O)OC[C@H]6C(F)F)cn4CCO5)CC3)C2)cc1)NCCO [Compound 383] |  |  |  |  |  |  | > 7.30 | > 7.30 |  |
| CC(C)(C=C(C#N)C(=O)Nc1ccc(N2CC(N3CCN(c4ccc5c(c4)-c4nc(N6C(=O)OC[C@H]6C(F)F)cn4CCO5)CC3)C2)c(Cl)c1)NC1(C)COC1 [Compound 385] |  |  |  |  |  |  | > 7.30 | > 7.30 |  |
| CC(C)(C=C(C#N)C(=O)Nc1ccc(N2CC(N3CCN(c4ccc5c(c4)-c4nc(N6C(=O)OC[C@H]6C(F)F)cn4CCO5)CC3)C2)nc1)NC1(C)COC1 [Compound 386] |  |  |  |  |  |  | > 7.30 | > 7.30 |  |
| CCC(C=C(C#N)C(=O)Nc1ccc(N2CC(N3CCN(c4ccc5c(c4)-c4nc(N6C(=O)OC[C@H]6C(F)F)cn4CCO5)CC3)C2)cc1)(CC)CC [Compound 389] |  |  |  |  |  |  | > 7.30 | > 7.30 |  |
| N#CC(=CC1(N)CCC1)C(=O)Nc1ccc(N2CC(N3CCN(c4ccc5c(c4)-c4nc(N6C(=O)OC[C@H]6C(F)F)cn4CCO5)CC3)C2)cc1 [Compound 391] |  |  |  |  |  |  | > 7.30 | > 7.30 |  |
| CNC1(C=C(C#N)C(=O)Nc2ccc(N3CC(N4CCN(c5ccc6c(c5)-c5nc(N7C(=O)OC[C@H]7C(F)F)cn5CCO6)CC4)C3)cc2)CCC1 [Compound 392] |  |  |  |  |  |  | > 7.30 | > 7.30 |  |
| N#CC(=CC1CCCC1)C(=O)Nc1ccc(N2CC(N3CCN(c4ccc5c(c4)-c4nc(N6C(=O)OC[C@H]6C(F)F)cn4CCO5)CC3)C2)cc1 [Compound 393] |  |  |  |  |  |  | > 7.30 | > 7.30 |  |
| N#CC(=Cc1ccccc1)C(=O)Nc1ccc(N2CC(N3CCN(c4ccc5c(c4)-c4nc(N6C(=O)OC[C@H]6C(F)F)cn4CCO5)CC3)C2)cc1 [Compound 394] |  |  |  |  |  |  | > 7.30 | > 7.30 |  |
